Data as given in patent publication US9695154B2, “Heteroaryl inhibitors of sumo activating enzyme” (MILLENNIUM PHARMACEUTICALS, INC., priority 2013, dated 2017).

Target: T1, recombinant human SAE enzyme (Homo sapiens, UniProt Q9UBT2)
T1 sequence (Q9UBT2 1-640): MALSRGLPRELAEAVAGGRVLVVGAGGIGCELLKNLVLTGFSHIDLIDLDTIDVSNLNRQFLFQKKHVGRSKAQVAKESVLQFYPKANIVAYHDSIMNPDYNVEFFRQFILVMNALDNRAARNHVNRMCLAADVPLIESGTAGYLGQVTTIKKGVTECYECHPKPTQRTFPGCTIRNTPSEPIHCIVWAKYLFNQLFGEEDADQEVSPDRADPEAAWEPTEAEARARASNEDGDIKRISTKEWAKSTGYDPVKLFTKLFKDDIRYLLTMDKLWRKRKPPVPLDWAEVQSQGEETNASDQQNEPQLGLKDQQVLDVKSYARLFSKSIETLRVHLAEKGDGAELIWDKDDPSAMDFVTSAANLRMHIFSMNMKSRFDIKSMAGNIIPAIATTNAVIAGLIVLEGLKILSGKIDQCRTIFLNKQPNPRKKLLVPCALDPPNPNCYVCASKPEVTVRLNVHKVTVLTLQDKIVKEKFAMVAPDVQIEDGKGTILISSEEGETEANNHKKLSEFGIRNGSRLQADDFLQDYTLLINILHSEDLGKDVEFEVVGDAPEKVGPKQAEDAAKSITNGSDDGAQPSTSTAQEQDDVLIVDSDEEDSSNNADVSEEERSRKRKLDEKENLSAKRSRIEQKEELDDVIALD
T1 sequence (Q9UBE0 1-346 partner): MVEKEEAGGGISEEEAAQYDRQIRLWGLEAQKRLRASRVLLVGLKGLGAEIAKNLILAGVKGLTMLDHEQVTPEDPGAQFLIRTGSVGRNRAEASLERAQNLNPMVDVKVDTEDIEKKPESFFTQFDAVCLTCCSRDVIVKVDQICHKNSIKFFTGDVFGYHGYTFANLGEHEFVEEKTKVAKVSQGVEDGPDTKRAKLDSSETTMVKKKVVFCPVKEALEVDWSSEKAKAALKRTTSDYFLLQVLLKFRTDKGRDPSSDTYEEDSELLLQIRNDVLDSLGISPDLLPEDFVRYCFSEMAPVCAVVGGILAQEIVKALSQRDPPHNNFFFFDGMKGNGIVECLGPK
Assay: SAE HTRF Enzyme Assay
Format: biochemical
Settings: for IC50: class symbols A-C; for inhibition at 0.111 µM / Percent Inhibition: compound concentration 0.111 μM; for inhibition at 0.111 µM: read-out: Percent Inhibition; for Percent Inhibition: 0.111 µM
Procedure: The SAE enzymatic reaction totals 50 μl and contains 50 mM HEPES Hemisodium (pH 7.5), 0.05% BSA, 5 mM MgCl2, 0.5 μM ATP, 250 μM GSH, 0.01 μM Ubc9-GST, 0.125 μM Sumo-Flag and 0.11 nM recombinant human SAE enzyme. The enzymatic reaction mixture with and without inhibitor, Is incubated at 24° C. for 105 min in a 384-well plate before termination with […] of Stop/Detection buffer (0.1M HEPES Hemisodium pH 7.5, 0.05% Tween20, 20 mM EDTA, 410 mM KF, 0.53 nM Europium-Cryptate labeled monoclonal anti-Flag M2 Antibody (CisBio International) and 8.125 μg/ml PHYCOLINK goat anti-GST allophycocyanin (XL-APC) antibody (Prozyme)). After incubation for 2 hours at 24° C., quantification of FRET is performed on the Pherostar™ (BMG Labtech). Percentage inhibition values at a single concentration or enzyme inhibition (IC50) values are determined from those curves. One skilled in the art will appreciate that the values generated either as percentage inhibition at a single concentration or IC50 values are subject to experimental variation.

SMILES	IC50	inhibition at 0.111 µM	Percent Inhibition
CC(c1ccc(Cl)o1)n1ccc(C(=O)c2cncnc2N[C@@H]2C[C@H](COS(N)(=O)=O)[C@@H](O)C2)n1 (single isomer, unassigned) [Compound I-354, [(1R,2S,4R)-4-{[5-({1-[(1 S)-1-(5-chloro-2-furyl)ethyl]-1H-pyrazol-3-yl}carbonyl)pyrimidin-4-yl]amino}-2-hydroxycyclopentyl]methyl sulfamate or [(1R,2S,4R)-4-{[5-({1-[(1R)-1-(5-chloro-2-furyl)ethyl]-1H-pyrazol-3-yl}carbonyl)pyrimidin-4-yl]amino}-2-hydroxycyclopentyl]methyl sulfamate]	10 to 100 nM	79%	–
C#Cc1cccc([C@H](C)n2ccc(C(=O)c3cncnc3N[C@@H]3C[C@H](COS(N)(=O)=O)[C@@H](O)C3)n2)c1 (single isomer, unassigned) [Compound I-355]	< 10 nM	99%	–
CCC(c1cccc(Br)c1)n1ccc(C(=O)c2cncnc2N[C@@H]2C[C@H](COS(N)(=O)=O)[C@@H](O)[C@@H]2F)c1 (single isomer, unassigned) [Compound I-356, [(1R,2R,3R,4R)-4-{[5-({1-[(1S)-1-(3-bromophenyl)propyl]-1H-pyrrol-3-yl}carbonyl)pyrimidin-4-yl]amino}-3-fluoro-2-hydroxycyclopentyl]methyl sulfamate or [(1R,2R,3R,4R)-4-{[5-({1-[(1R)-1-(3-bromophenyl)propyl]-1H-pyrrol-3-yl}carbonyl)pyrimidin-4-yl]amino}-3-fluoro-2-hydroxycyclopentyl]methyl sulfamate]	10 to 100 nM	–	85%
CC(c1ccc(C(F)(F)F)o1)n1ccc(C(=O)c2cncnc2N[C@@H]2C[C@H](COS(N)(=O)=O)[C@@H](O)[C@@H]2F)c1 (single isomer, unassigned) [Compound I-357, [(1R,2R,3R,4R)-3-fluoro-2-hydroxy-4-({5-[(1-{(1S)-1-[5-(trifluoromethyl)-2-furyl]ethyl}-1H-pyrrol-3-yl)carbonyl]pyrimidin-4-yl}amino)cyclopentyl]methyl sulfamate or [(1R,2R,3R,4R)-3-fluoro-2-hydroxy-4-({5-[(1-{(1R)-1-[5-(trifluoromethyl)-2-furyl]ethyl}-1H-pyrrol-3-yl)carbonyl]pyrimidin-4-yl}amino)cyclopentyl]methyl sulfamate]	< 10 nM	–	100%
CC(c1cccc(Br)c1)n1ccc(C(=O)c2cncnc2N[C@@H]2C[C@H](COS(N)(=O)=O)[C@@H](O)C2)n1 (single isomer, unassigned) [Compound I-358, [(1R,2S,4R)-4-{[5-({1-[(1S)-1-(3-bromophenyl)ethyl]-1H-pyrazol-3-yl}carbonyl)pyrimidin-4-yl]amino}-2-hydroxycyclopentyl]methyl sulfamate or [(1R,2S,4R)-4-{[5-({1-[(1R)-1-(3-bromophenyl)ethyl]-1H-pyrazol-3-yl}carbonyl)pyrimidin-4-yl]amino}-2-hydroxycyclopentyl]methyl sulfamate]	< 10 nM	–	95%
NS(=O)(=O)OC[C@H]1C[C@@H](Nc2ncncc2C(=O)c2ccn(CC3CC3c3ccccc3)c2)[C@@H](F)[C@@H]1O (single isomer, unassigned) [Compound I-359, [(1R,2R,3R,4R)-3-fluoro-2-hydroxy-4-{[5-({1-[(1R,2R)-(2-phenylcyclopropyl)methyl]-1H-pyrrol-3-yl}carbonyl)pyrimidin-4-yl]amino}cyclopentyl]methyl sulfamate or [(1R,2R,3R,4R)-3-fluoro-2-(hydroxy-4-{[5-({1-[(1S,2S)-(2-phenylcyclopropyl)methyl]-1H-pyrrol-3-yl}carbonyl)pyrimidin-4-yl]amino}cyclopentyl]methyl sulfamate]	10 to 100 nM	–	68%
CC(c1cccc(Cl)c1)n1ccc(C(=O)c2cncnc2N[C@@H]2C[C@H](COS(N)(=O)=O)[C@@H](O)C2)n1 (single isomer, unassigned) [Compound I-360, [(1R,2S,4R)-4-{[5-({1-[(1S)-1-(3-chlorophenyl)ethyl]-1H-pyrazol-3-yl}carbonyl)pyrimidin-4-yl]amino}-2-hydroxycyclopentyl]methyl sulfamate or [(1R,2S,4R)-4-{[5-({1-[(1R)-1-(3-chlorophenyl)ethyl]-1H-pyrazol-3-yl}carbonyl)pyrimidin-4-yl]amino}-2-hydroxycyclopentyl]methyl sulfamate]	< 10 nM	–	99%
CC(c1ccccc1)n1ccc(C(=O)c2cncnc2N[C@@H]2C[C@H](COS(N)(=O)=O)[C@@H](O)[C@H]2O)n1 (single isomer, unassigned) [Compound I-361, {(1R,2R,3S,4R)-2,3-dihydroxy-4-[(5-{[1-((1S)-1-phenylethyl)-1H-pyrazol-3-yl]carbonyl}pyrimidin-4-yl)amino]cyclopentyl}methyl sulfamate or {(1R,2R,3S,4R)-2,3-dihydroxy-4-[(5-{[1-((1R)-1-phenylethyl)-1H-pyrazol-3-yl]carbonyl}pyrimidin-4-yl)amino]cyclopentyl}methyl sulfamate]	10 to 100 nM	–	85%
CC#CC(C)n1ccc(C(=O)c2cncnc2N[C@@H]2C[C@H](COS(N)(=O)=O)[C@@H](O)C2)n1 (single isomer, unassigned) [Compound I-362, {(1R,2S,4R)-2-hydroxy-4-[(5-{[(1S)-1-(pent-3-yn-2-yl)-1H-pyrazol-3-yl]carbonyl}pyrimidin-4-yl)amino]cyclopentyl}methyl sulfamate or {(1R,2S,4R)-2-hydroxy-4-[(5-{[(1R)-1-(pent-3-yn-2-yl)-1H-pyrazol-3-yl]carbonyl}pyrimidin-4-yl)amino]cyclopentyl}methyl sulfamate]	10 to 100 nM	52%	–
CC(c1cccc(Br)c1)n1ccc(C(=O)c2cncnc2N[C@@H]2C[C@H](COS(N)(=O)=O)[C@@H](O)[C@@H]2F)c1 (single isomer, unassigned) [Compound I-363, [(1R,2R,3R,4R)-4-{[5-({1-[(1S)-1-(3-bromophenyl)ethyl]-1H-pyrrol-3-yl}carbonyl)pyrimidin-4-yl]amino}-3-fluoro-2-hydroxycyolopentyl]methyl sulfamate or [(1R,2R,3R,4R)-4-{[5-({1-[(1R)-1-(3-bromophenyl)ethyl]-1H-pyrrol-3-yl}carbonyl)pyrimidin-4-yl]amino}-3-fluoro-2-hydroxycyclopentyl]methyl sulfamate]	< 10 nM	–	100%
CC(c1ccc(Cl)o1)n1ccc(C(=O)c2cncnc2N[C@@H]2C[C@H](COS(N)(=O)=O)[C@@H](O)[C@@H]2F)c1 (single isomer, unassigned) [Compound I-364, [(1R,2R,3R,4R)-4-{[5-({1-[(1S)-1-(5-chloro-2-furyl)ethyl]-1H-pyrrol-3-yl}carbonyl)pyrimidin-4-yl]amino}-3-fluoro-2-hydroxycyclopentyl]methyl sulfamate or [(1R,2R,3R,4R)-4-{[5-({1-[(1R)-1-(5-chloro-2-furyl)ethyl]-1H-pyrrol-3-yl}carbonyl)pyrimidin-4-yl]amino}-3-fluoro-2-hydroxycyclopentyl]methyl sulfamate]	< 10 nM	–	99%
